# Values of other authors as cited in patent publication US9206466B2, “Compositions and methods for regulating peptidyltransferase activity and uses thereof” (University of Maryland, priority 2004, dated 2015).
# Columns and labels:
# −1 PRF = details: yeast; Dinman et al., 1997
# killer virus = details: yeast; Dinman et al., 1997
structure (smiles),measurement,setting,value
CSC[S@+]([O-])C[C@H](CO)NC(=O)/C=C/c1c(C)[nH]c(=O)[nH]c1=O [sparsomycin],−1 PRF efficiencies,−1 PRF,promoted increased −1 PRF efficiencies
same,maintenance of the killer virus,killer virus,loss of the killer virus
